Experimental data as given in patent US20110251144A1, “MOLECULAR MODULATORS OF THE WNT/BETA-CATENIN PATHWAY” (MASSACHUSETTS INSTITUTE OF TECHNOLOGY, priority 2008, published 2011).
Entries after “also recorded” stand apart in the source; their conditions may differ. Where two headings read alike, the source gives them in different places.

Key:
[1] = system: Axin2, Si/Gp100, Kit and other melanocytic genes; experiment: Quantitative PCR of endogenous gene targets in B16 melanoma cells; type: cell-based, murine
Method: Cells were cultured for approximately 72 hours until they reached 80-90% confluency. RNA was purified using the RNeasy kit using the manufacturer's protocol (Qiagen; Maryland, MD). cDNA was synthesized using Superscript Reverse Transcriptase (Invitrogen; Grand Island, N.Y.). […] Quantitative PCR results presented in the manuscript are representative of experiments performed on a minimum of three biologic replicates.

B16 cells [2] = experiment: Proliferation of B16 cells by MTT assay; type: cell-based, murine
nuclear β-catenin = experiment: Immunofluorescent staining of β-catenin in B16 cells; type: cell-based, murine; conditions: 10 mM lithium chloride or BIO, versus sodium chloride or DMSO
Method: A polyclonal rabbit anti-β-catenin antibody was used for detection of β-catenin (1:1000 dilution for immunoblot, 1:200 dilution for immunohistochemistry). Cells were grown on 18 mm glass coverslips, for 48-72 hours, fixed using 4% paraformaldahyde, permeabilized using 0.25% Triton X-100, and then blocked with 10% goat serum. Goat anti-rabbit Alexa Fluor-568 antibody (Molecular Probes; Eugene, Oreg.) was diluted 1:1000. Cells were counterstained for nucleic acid with DAPI (Molecular Probes; Eugene, Oreg.). Paraffin-embedded nevus sections were stained using an antibody dilution of 1:200. Cellular lysates were obtained by lysing cells on plate with a 0.1% NP-40 based buffer and analyzed by NuPage 4-12% gradient gels (Invitrogen; Grand Island, N.Y.). The WNT5A antibody was obtained from Cell Signaling Technologies (Danvers, Mass.).

[3] = Suitability for murine therapeutic trials (toxicity, serum levels); type: in vivo; conditions: mice
[4] = system: Wnt/β-catenin signaling (beta-catenin activated reporter, BAR); experiment: High throughput small molecule screen, beta-catenin activated reporter (BAR) in HT22 cells; type: cell-based, mouse
Method: Compounds were dissolved in dimethylsulphoxide (DMSO). For the primary screen, performed in duplicate, HT22 cells stably expressing the beta-catenin activated reporter (BAR) were cultured in growth medium (DMEM/10% FBS/1% antibiotic). 3000 cells per well were transferred to 384-well clear bottom plates (Nalgene Nunc; Rochester, N.Y.) in 30 μL of growth medium. The following day, […] of compound and 10 μL of either growth media or WNT3A conditioned media (E.C.50 dose) was transferred to the cells. The next day each well was imaged using transmitted light with the ImageXpress Micro (Molecular devices; Sunnyvale, Calif.) followed by the addition of 10 μL of Steady-Glo (Promega; Madison, Wis.) as per the manufacture's instructions, and luminescence measurement on an EnVision Multilabel plate reader (PerkinElmer; Waltham, Mass.). Viability was scored by analyzing the ImageXpress images. As described in detail in Seiler et al. (Seiler et al., Nucleic Acids Res. 36:D351 (2008), which is hereby incorporated by reference in its entirety), each compound well received an algebraically signed Z-score corresponding to the number of standard deviations it fell above or below the mean of a well-defined mock-treatment distribution of DMSO controls. Z-score normalized data from the growth media stimulus group were sorted by average percent change. The fold-increase over the background of DMSO controls for each treatment was also calculated. Top compounds with the greatest percent change of activity with the growth media were then resorted based on the percent change with the WNT3A stimulus.
These compounds represent FDA approved compounds and drugs or known bioactive molecules. RKO (human colorectal carcinoma red line) and HT22 (mouse hyppocampal line) cell lines were screened. The lines were tested without a stimulus, in presence of an E.C.50 dose of Wnt 3A condition media and in presence of a subthreshold dose of LiCl.

[5] = system: Wnt/β-catenin signaling (beta-catenin activated reporter, BAR); experiment: High throughput small molecule screen, Wnt/β-catenin reporter in RKO cells; type: cell-based, human
Axin2 promoter = experiment: Secondary screen, firefly luciferase under the Axin2 promoter in HEK293T cells; type: cell-based; conditions: alone and with WNT3A conditioned media
B16 cells [6] = experiment: Pigmentation of cultured B16 cells; type: cell-based, murine; conditions: B16 cells treated for 2 passages, 10 μM
B16 melanoma cells = experiment: B16 footpad tumor inoculation, tumor size and metastasis in C57BL/6 mice; type: in vivo
Method: Footpad injections of transduced B16 melanoma cells and measurement of popliteal lymph node and lung metastasis was performed as previously described (Murakami et al., Cancer Res. 62:7328 (2002), which is hereby incorporated by reference in its entirety). […] Fumagalli et al., Exp. Neurol. 198:114 (2006), which are hereby incorporated by reference in their entirety). […] All animal studies were performed using IACUC protocols approved by institutional review boards.

[7] = system: human melanoma xenografts; conditions: mouse model, Namkoong et al. 2007; cited from earlier work
[8] = 10 mM lithium chloride or 1 μM BIO
[9] = HT22 cells, in presence of a subthreshold dose of LiCl
[10] = HT22 cells, in presence of an E.C.50 dose of Wnt 3A condition media
[11] = RKO cells, in presence of a subthreshold dose of LiCl
[12] = RKO cells, in presence of an E.C.50 dose of Wnt 3A condition media

| Molecule | HT22 Li [4] | HT22 Wnt3a [4] | RKO Li [5] | RKO Wnt3a [5] | HT22 Li [4, 9] | HT22 Wnt3a [4, 10] | RKO Li [5, 11] | RKO Wnt3a [5, 12] | further results |
| --- | --- | --- | --- | --- | --- | --- | --- | --- | --- |
| O=C1Nc2cc(Br)ccc2/C1=C1/Nc2ccccc2/C1=N\O [BIO, 6-bromoindirubin-3′-oxime] |  |  |  |  |  |  |  |  | Axin2 levels by quantitative PCR [1, 8]: increased Axin2 levels; Proliferation by MTT assay (B16 cells [2]; [8]): decreased proliferation; Nuclear β-catenin by immunofluorescent staining (nuclear β-catenin): increased nuclear β-catenin; Obstacles to murine therapeutic trials [3]: several obstacles relating to both toxicity |
| Cl.Cl.FC(F)(F)c1ccc2c(c1)N(CCCN1CCN(CCCl)CC1)c1ccccc1S2 [Fluphenazine-N-2-chloroethane, Dihydrochloride] | 1.32 | 0.13 | 4.27 | 0.08 |  |  |  |  |  |
| Cc1[nH]c(=O)c(C#N)cc1-c1ccncc1 [milrinone] | 0.98 | 1.75 | 1.00 | 1.20 |  |  |  |  |  |
| Nc1nc2ccc(OC(F)(F)F)cc2s1 [riluzole] |  |  |  |  |  |  |  |  | Activation of firefly luciferase under the Axin2 promoter (Axin2 promoter): both on its own as well as in synergy with WNT3A conditioned media; Expression of melanocytic genes ([1]; 72 hours, 10 mM lithium chloride or 10 μM riluzole): elevation in levels of melastatin (Trpm1) and Kit transcripts; also recorded: upregulation of melanocytic genes; Pigmentation (B16 cells [6]): increased pigmentation; Proliferation by MTT assay (B16 cells [2]; three days, 10 μM riluzole): decreased proliferation; Sentinel popliteal lymph node metastasis (Firefly luciferase) (B16 melanoma cells; 9 mice per group, versus control mice with no treatment): significantly decreased metastasis; Tumor size (B16 melanoma cells; after 21 days, treatment initiated one week post-injection, oral in drinking water): No significant difference; Lung metastasis, mice affected (B16 melanoma cells; versus 3 out of 9 control mice): 0 out of 9; Proliferation / growth of human melanoma xenografts [7]: could decrease proliferation of human melanoma xenografts |
| CCCCCCCCCCCCCCCCCC(=O)O[C@H](CC(=O)[O-])C[N+](C)(C)C [stearoylcarnitine] |  |  |  |  | 3.21 | 0.38 | 0.92 | 0.10 |  |
| azathioprine |  |  |  |  | 0.76 | 2.67 | 1.06 | 1.30 |  |
